For 12 compounds, pest or weed control results are on record in US8828908B2, “Herbicidally active bicyclic 1,3-dione compounds” (Syngenta Limited, priority 2007, dated 2014).

Holding throughout (assay type): in vivo
The subject of assay [1] is Alopecurus myosuroides (ALOMY). The assay can be described thus: Example B pre-emergence herbicidal greenhouse test. The note with it: 480 h, evaluated after 20 days, 100=total damage to plant, 0=no damage. As to the method: (§1) Seeds of a variety of test species were sown in standard soil in pots. After cultivation for one day (pre-emergence) or after 10 days cultivation (post-emergence) under controlled conditions in a glasshouse, the plants were sprayed with an aqueous spray solution derived from the formulation of the technical active ingredient in 0.6 ml acetone and 45 ml formulation solution containing 10.6% Emulsogen EL (Registry number 61791-12-6), 42.2% N-methylpyrrolidone, 42.2% dipropylene glycol monomethyl ether (Registry number 34590-94-8) and 0.2% X-77 (Registry number 11097-66-8). The test plants were then grown in a greenhouse under optimum conditions until, 15 days later for post-emergence and 20 days for pre-emergence, the test was evaluated (100=total damage to plant; 0=no damage to plant).
(§2) Alopecurus myosuroides (ALOMY), Avena fatua (AVEFA), Lolium perenne (LOLPE), Setaria faberi (SETFA), Digitaria sanguinalis (DIGSA), Echinochloa crus-galli (ECHCG)

Assay [2] relates to Avena fatua (AVEFA). The assay is described as follows: Example B pre-emergence herbicidal greenhouse test. The note with it: 480 h, evaluated after 20 days, 100=total damage to plant, 0=no damage. Here is the method:
as §1, §2

Assay [3] has as its system Digitaria sanguinalis (DIGSA). The assay can be described thus: Example B pre-emergence herbicidal greenhouse test. The note with it: 480 h, evaluated after 20 days, 100=total damage to plant, 0=no damage. As to the method:
as §1, §2

Assay [4] deals with Echinochloa crus-galli (ECHCG). The assay is described as follows: Example B pre-emergence herbicidal greenhouse test. The note with it: 480 h, evaluated after 20 days, 100=total damage to plant, 0=no damage. As to the method:
as §1, §2

Assay [5] relates to Lolium perenne (LOLPE). The assay is described as follows: Example B pre-emergence herbicidal greenhouse test. The following applies: 480 h, evaluated after 20 days, 100=total damage to plant, 0=no damage. As to the method:
as §1, §2

Assay [6] relates to Setaria faberi (SETFA). The assay can be described thus: Example B pre-emergence herbicidal greenhouse test. The following applies: 480 h, evaluated after 20 days, 100=total damage to plant, 0=no damage. As to the method:
as §1, §2

Assay [7] deals with Alopecurus myosuroides (ALOMY). The assay is described as follows: Example B post-emergence herbicidal greenhouse test. The following applies: 360 h, evaluated after 15 days, 100=total damage to plant, 0=no damage. As to the method:
as §1, §2

Assay [8] has as its system Avena fatua (AVEFA). The description is as above. The following applies: 360 h, evaluated after 15 days, 100=total damage to plant, 0=no damage. Here is the method:
as §1, §2

For assay [9], the system named is Digitaria sanguinalis (DIGSA). The description is as above. The following applies: 360 h, evaluated after 15 days, 100=total damage to plant, 0=no damage. Here is the method: as §1, §2
For assay [10], the system named is Echinochloa crus-galli (ECHCG). The assay is described as above. The note with it: 360 h, evaluated after 15 days, 100=total damage to plant, 0=no damage. Here is the method:
as §1, §2

The subject of assay [11] is Lolium perenne (LOLPE). Described as above. The following applies: 360 h, evaluated after 15 days, 100=total damage to plant, 0=no damage. As to the method:
as §1, §2

The subject of assay [12] is Setaria faberi (SETFA). The description is as above. The note with it: 360 h, evaluated after 15 days, 100=total damage to plant, 0=no damage. Here is the method:
as §1, §2

By pest or weed control is commonly meant how far the test organism was held down. Low readings indicate a weak effect, high ones a strong effect. Consider `Cc1ccc(-c2ccc(Cl)cc2Cl)cc1C1=C(O)[C@H]2CC[C@H](C2)C1=O` (single isomer, unassigned) [Compound T12], for which the pest or weed control at 250 g/ha in assay [1] amounted to 30%; with Avena fatua (AVEFA) [2] it was 40%; in assay [3] it was 100%; in [4], 40%; in the assay on Lolium perenne (LOLPE) [5], 70%; with Setaria faberi (SETFA) [6] it was 60%. The pest or weed control at 125 g/ha in assay [7] worked out at 0%; with Avena fatua (AVEFA) [8], 10%; in [9] it was 60%; in [10], 70%; in the assay on Lolium perenne (LOLPE) [11], 0%; in the assay with Setaria faberi (SETFA) [12] it was 80%.

In the case of `Cc1ccc(-c2ccc(Cl)cc2C)cc1C1=C(O)[C@H]2CC[C@H](C2)C1=O` (single isomer, unassigned) [Compound T26], the pest or weed control at 250 g/ha in assay [1] came to 0%; with Avena fatua (AVEFA) [2], 0%; in assay [3], 0%; in assay [4], 30%; in the assay on Lolium perenne (LOLPE) [5], 20%; in the assay with Setaria faberi (SETFA) [6], 50%. The pest or weed control at 125 g/ha in assay [7] was determined as 20%; in the assay with Avena fatua (AVEFA) [8], 0%; in [9], 10%; in [10], 60%; with Lolium perenne (LOLPE) [11], 10%; with Setaria faberi (SETFA) [12], 60%.

With `Cc1ccc(-c2cc(Cl)cc(Cl)c2)cc1C1=C(O)[C@H]2CC[C@H](C2)C1=O` (single isomer, unassigned) [Compound T28], the pest or weed control at 250 g/ha is 0% in [1]; 10% with Avena fatua (AVEFA) [2]; 0% in [3]; 0% in [4]; 20% in the assay on Lolium perenne (LOLPE) [5]; 0% with Setaria faberi (SETFA) [6]. Moreover, the pest or weed control at 125 g/ha was 20% in [7]; 10% in the assay on Avena fatua (AVEFA) [8]; 0% in [9]; 0% in assay [10]; 0% with Lolium perenne (LOLPE) [11]; 10% with Setaria faberi (SETFA) [12].

Turning to `Cc1ccc(-c2ccc(Cl)c(C(F)(F)F)c2)cc1C1=C(O)[C@H]2CC[C@H](C2)C1=O` (single isomer, unassigned) [Compound T8], the pest or weed control at 250 g/ha in assay [1] is 50%; in the assay on Avena fatua (AVEFA) [2], 30%; in assay [3], 70%; in assay [4] it was 100%; in the assay on Lolium perenne (LOLPE) [5] it was 50%; with Setaria faberi (SETFA) [6], 70%. Also, the pest or weed control at 125 g/ha was found to be 10% in assay [7]; 0% in the assay with Avena fatua (AVEFA) [8]; 30% in assay [9]; 0% in assay [10]; 0% with Lolium perenne (LOLPE) [11]; 30% in the assay with Setaria faberi (SETFA) [12].

For `Cc1ccc(-c2ccc(Cl)c(C#N)c2)cc1C1=C(O)[C@H]2CC[C@H](C2)C1=O` (single isomer, unassigned) [Compound T25], the pest or weed control at 250 g/ha came out at 0% in assay [1]; 0% in the assay with Avena fatua (AVEFA) [2]; 80% in [3]; 50% in assay [4]; 20% with Lolium perenne (LOLPE) [5]; 80% in the assay with Setaria faberi (SETFA) [6]. Also, the pest or weed control at 125 g/ha was 20% in [7]; 0% in the assay on Avena fatua (AVEFA) [8]; 80% in assay [9]; 0% in assay [10]; 0% in the assay with Lolium perenne (LOLPE) [11]; 30% with Setaria faberi (SETFA) [12].

Regarding `CC(=O)OC1=C(c2c(C)cc(-c3ccccc3)cc2C)C(=O)[C@@H]2CC[C@H]1C2` [Compound P1], the pest or weed control at 250 g/ha is 30% in assay [1]; 30% with Avena fatua (AVEFA) [2]; 70% in assay [3]; 100% in assay [4]; 60% with Lolium perenne (LOLPE) [5]; 70% in the assay with Setaria faberi (SETFA) [6]. Besides, the pest or weed control at 125 g/ha in assay [7] worked out at 20%; with Avena fatua (AVEFA) [8], 0%; in assay [9], 60%; in [10], 60%; in the assay with Lolium perenne (LOLPE) [11], 20%; in the assay on Setaria faberi (SETFA) [12], 70%.

On to `COc1cc(Cl)ccc1-c1ccc(C)c(C2=C(O)[C@H]3CC[C@H](C3)C2=O)c1` (single isomer, unassigned) [Compound T11], for which the pest or weed control at 250 g/ha in assay [1] is 10%; with Avena fatua (AVEFA) [2] it was 0%; in assay [3], 0%; in assay [4] it was 10%; in the assay with Lolium perenne (LOLPE) [5], 10%; in the assay on Setaria faberi (SETFA) [6] it was 10%. Moreover, the pest or weed control at 125 g/ha in [7] worked out at 20%; in the assay with Avena fatua (AVEFA) [8], 20%; in [9] it was 0%; in assay [10], 20%; in the assay on Lolium perenne (LOLPE) [11] it was 0%; with Setaria faberi (SETFA) [12], 10%.

Turning to `CCc1ccc(-c2ccc(C)cc2)cc1C1=C(O)[C@H]2CC[C@H](C2)C1=O` [Compound T5], the pest or weed control at 250 g/ha in assay [1] came out at 0%; with Avena fatua (AVEFA) [2], 10%; in assay [3], 10%; in assay [4] it was 100%; in the assay on Lolium perenne (LOLPE) [5], 0%; in the assay with Setaria faberi (SETFA) [6], 0%. Further, the pest or weed control at 125 g/ha in assay [7] was found to be 0%; in the assay on Avena fatua (AVEFA) [8], 0%; in assay [9], 50%; in assay [10] it was 80%; in the assay with Lolium perenne (LOLPE) [11] it was 0%; in the assay with Setaria faberi (SETFA) [12], 70%.

Take `COc1ccc(Cl)cc1-c1ccc(C)c(C2=C(O)[C@H]3CC[C@H](C3)C2=O)c1` (single isomer, unassigned) [Compound T30]: the pest or weed control at 250 g/ha (in assay [1]; with Avena fatua (AVEFA) [2]; in assay [3]; in [4]; with Lolium perenne (LOLPE) [5]; in the assay with Setaria faberi (SETFA) [6]) was 0% throughout. The pest or weed control at 125 g/ha came out at 10% in assay [7]; 10% with Avena fatua (AVEFA) [8]; 0% in assay [9]; 0% in assay [10]; 10% in the assay with Lolium perenne (LOLPE) [11]; 0% in the assay with Setaria faberi (SETFA) [12].

Regarding `CCc1ccc(-c2ccc(F)cc2)cc1C1=C(O)[C@H]2CC[C@H](C2)C1=O` [Compound T3], the pest or weed control at 250 g/ha amounted to 50% in assay [1]; 60% with Avena fatua (AVEFA) [2]; 80% in assay [3]; 100% in assay [4]; 70% in the assay on Lolium perenne (LOLPE) [5]; 100% in the assay on Setaria faberi (SETFA) [6]. Also, the pest or weed control at 125 g/ha in assay [7] turned out to be 50%; in the assay on Avena fatua (AVEFA) [8], 30%; in assay [9], 80%; in assay [10] it was 90%; in the assay with Lolium perenne (LOLPE) [11], 0%; in the assay with Setaria faberi (SETFA) [12], 90%.

Regarding `Cc1ccc(-c2ccc(Cl)cc2F)cc1C1=C(O)[C@H]2CC[C@H](C2)C1=O` (single isomer, unassigned) [Compound T27], the pest or weed control at 250 g/ha in assay [1] turned out to be 60%; with Avena fatua (AVEFA) [2], 50%; in assay [3], 80%; in assay [4], 80%; in the assay with Lolium perenne (LOLPE) [5], 70%; with Setaria faberi (SETFA) [6] it was 100%. Further, the pest or weed control at 125 g/ha in [7] was determined as 30%; in the assay with Avena fatua (AVEFA) [8] it was 70%; in assay [9] it was 70%; in assay [10], 80%; in the assay on Lolium perenne (LOLPE) [11], 30%; with Setaria faberi (SETFA) [12] it was 90%.

On to `Cc1cc(-c2ccc(C)c(C3=C(O)[C@H]4CC[C@H](C4)C3=O)c2)ccc1Cl` (single isomer, unassigned) [Compound T24], for which the pest or weed control at 250 g/ha turned out to be 40% in assay [1]; 0% in the assay with Avena fatua (AVEFA) [2]; 70% in assay [3]; 80% in assay [4]; 10% in the assay with Lolium perenne (LOLPE) [5]; 20% in the assay with Setaria faberi (SETFA) [6]. For the same compound, the pest or weed control at 125 g/ha in assay [9] is 0%; in assay [10], 30%; with Setaria faberi (SETFA) [12] it was 0%.
